The values that follow come from patent publication EP3381898A1, “SYMMETRICAL TRIS-ARYL-AMIDE DERIVATIVES AND THEIR USE AS ANTI-HEPARANASE” (priority 2017, dated 2018).

For orientation: inhibition means the relative decrease from the control value, in per cent.

For assay [1], the target named is T1, heparanase (Homo sapiens, UniProt Q9Y251).
T1 sequence (Q9Y251 158-543 limits assumed): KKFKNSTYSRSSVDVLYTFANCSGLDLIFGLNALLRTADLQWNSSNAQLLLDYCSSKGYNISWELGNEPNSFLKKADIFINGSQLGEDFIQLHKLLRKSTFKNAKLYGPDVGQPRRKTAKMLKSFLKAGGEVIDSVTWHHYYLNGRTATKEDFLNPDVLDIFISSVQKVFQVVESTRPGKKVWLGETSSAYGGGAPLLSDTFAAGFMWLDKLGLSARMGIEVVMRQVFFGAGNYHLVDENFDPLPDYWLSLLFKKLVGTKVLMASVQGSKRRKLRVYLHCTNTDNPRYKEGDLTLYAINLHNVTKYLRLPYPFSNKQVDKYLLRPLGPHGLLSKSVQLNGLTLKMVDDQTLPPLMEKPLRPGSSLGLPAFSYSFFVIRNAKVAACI
T1 sequence (Q9Y251 36-109 limits assumed): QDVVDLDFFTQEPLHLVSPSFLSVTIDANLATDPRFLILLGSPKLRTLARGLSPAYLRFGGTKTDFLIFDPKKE
The assay is described as follows: AGA*IA assay: heparanase-catalyzed fondaparinux cleavage, colorimetric (WST-1). It counts as biochemical. The method, then: All compounds were tested in a simple, accurate and robust microplate assay based on the cleavage of the synthetic heparin fragment, the pentasaccharide Fondaparinux (AGA*IA). This assay was originally developed by Hammond and coworkers (Hammond E, Li CP, Ferro V. Development of a colorimetric assay for heparanase activity suitable for kinetic analysis and inhibitor screening. Anal. Biochem. 396(1), 112-116 (2010)), where Fondaparinux corresponds to the methyl glycoside of the antithrombin III (ATIII)-activating pentasaccharide sequence of heparin. Fondaparinux is cleaved by heparanase to generate a reducing disaccharide, which can be quantitatively measured via a colorimetric or a fluorescence assay, the last by the fluorescent sensor polymer-H [Schiemann S, Lühn S, Alban S. Development of both colorimetric and fluorescence heparinase activity assays using fondaparinux as substrate. Anal. Biochem. 427(1), 82-89 (2012)].
The assay measures the appearance of the disaccharide product of heparanase-catalyzed fondaparinux cleavage colorimetrically using the tetrazolium salt WST-1. Assay was essentially performed as described with minor modifications. Briefly, NUNC ELISA 96-well plates were pre-treated with a solution of 4% BSA (bovin serum albumin) in phosphate-buffered saline containing 0.05% Tween 20 (PBST), for 2 h at 37°C, then washed three times with PBST, dried by tapping on paper towel and stored at -20°C. Before use, once again, the plates were washed with PBST.
Assay was carried out with 100 µl/well of assay solution containing 40 mM sodium acetate buffer (pH 5.0), 100 µM fondaparinux, 2.5 nM heparanase and serial dilutions of test compounds (tested in triplicate). Plates were sealed with adhesive tape and incubated, in the dark, for 3 h at 37°C, followed by development with 1.69 mM of the tetrazolium salt WST-1 solution in 0.1 M NaOH, for 1 h at 60°C. Then, the absorbance at 560 nm was measured through a microplate reader (Victor 3, Perkin Elmer).
Finally, the measurements were corrected by subtracting both the reagent background and the inner absorbance value of test compound.

Assay [2] relates to HT1080 (human fibrosarcoma). The assay is described as follows: SRB Cell Cytotoxicity Assay (cell proliferation, 72h). It counts as cell-based. Particulars: read-out: Concentration (µM) of test compounds at which the cell growth is inhibited by 50 %. HT1080. The method, then:
(§1) SRB Cell Cytotoxicity Assay is an assay based upon the quantitative staining of cellular proteins by sulforhodamine B (SRB). This assay can be used for high-throughput drug screening ([…], Nature Protocol. 2006, 1, 112). Sulforhodamine B is an anionic aminoxanthene dye that forms an electrostatic complex with the basic amino acid residues of proteins under moderately acid conditions, which provides a sensitive linear response. […] Inhibition of cell proliferation was then measured by the classical colorimetric SRB Cell Cytotoxicity assay. Absorbance was measured by spectrophotometer at a wavelength of 510 nm and cell proliferation was determined as percent with respect to control cells (cells treated with the vehicle alone). EC50 values were then determined by GraphPad Prism.

Assay [3] deals with U2OS (human osteosarcoma). The description is as above. It is filed as cell-based. Particulars: read-out: Concentration (µM) of test compounds at which the cell growth is inhibited by 50 %. U2OS. As to the method: as §1
Assay [4] relates to U87MG (human glioblastoma astrocytoma). The description is as above. It counts as cell-based. Conditions: U-87 MG, read-out: Concentration (µM) of test compounds at which the cell growth is inhibited by 50 %. U87MG. The method, then: as §1
The subject of assay [5] is HT1080 (human fibrosarcoma). The assay is described as follows: Matrigel cell invasion assay. It is filed as cell-based. Particulars: for inhibition at 2.5 µM: HT-1080, read-out: Invasion Assay Inhibition HT1080. As to the method: (§2) Heparanase inhibitors were then evaluated for their activity on the invasive potential of HT1080 (human fibrosarcoma), U87MG (human glioblastoma astrocytoma) and U2OS (human osteosarcoma) human cell lines, using the Matrigel cell invasion assay which allows to assess the cell invasion ability of malignant and normal cells.
(§3) Invasion assay was performed using BioCoat cell culture inserts (BioCoat 8.0µm PET Membrane 24 Well Permeable Supports, Corning). Filters were coated with 100 µl of 300 µg/ml Matrigel dissolved in coating buffer (0.01 M Tris pH 8.0, 0.7% NaCl) (Becton-Dickinson Sciences). DMEM (Dulbecco's Modified Eagle's Medium) containing 5% FBS was added to the lower chambers. Cells were pre-treated with heparanase inhibitors for 24 h, detached and added to the upper chambers in media containing the inhibitors. Cells were allowed to invade for 24 h at 37°C in a CO2 incubator and then unmigrated cells were removed from the upper chamber with a cotton swab. The invading cells were fixed, stained with 0.1% crystal violet for 10 min at room temperature, photographed and counted under inverted microscope.
(§4) Test compounds were analyzed at fixed concentration (2.5 µM) for several fields, in duplicates. Activity of test compounds was compared to the reference compound. Activity of most interesting compound was confirmed in a second cell invasion assay. Data were expressed as the percent invasion with respect to cell migration through uncoated insert membrane.
(§5) Table 3. […] In Invasion assay, data were expressed as the percent invasion (range) with respect to cell migration through uncoated insert membrane. In Adhesion assay, data were expressed as the percent of adhesion with respect to the control (100%).

In assay [6] the test system is U2OS (human osteosarcoma). The assay is described as follows: Matrigel cell invasion assay. It counts as cell-based. Particulars: for inhibition at 2.5 µM: Homo sapiens, read-out: Invasion Assay Inhibition U2OS. The method, then:
as §2, §3, §4, §5

The test system of assay [7] is U87MG (human glioblastoma astrocytoma). Kind of assay: Matrigel cell invasion assay. It is filed as cell-based. Particulars: for inhibition at 2.5 µM: Homo sapiens, U-87 MG, read-out: Invasion Assay Inhibition U87MG. The method, then: as §2, §3, §4, §5
Assay [8] deals with HT1080 (human fibrosarcoma). The assay is described as follows: Cell adhesion assay on matrigel coated wells. It counts as cell-based. Conditions: percent of adhesion with respect to the control (100%). As to the method:
(§6) Cell surface, non-integrin molecules such as heparan sulfate proteoglycans (HSPGs) may be involved in the regulation of early adhesive stages of cell-ECM interactions. A cell adhesion assay has been employed to determine if the newly designed heparanase inhibitors were able to interfere with adhesion properties of cancer cells.
(§7) HT1080 (human fibrosarcoma) and U87MG (human glioblastoma astrocytoma) cells were treated for 18-20 h with test compounds in complete medium supplemented with 10% FCS. Then cells were collected, washed in complete medium, and added to matrigel coated wells in triplicate, at previously identified optimal seeding density, and incubated at 37 °C in complete medium for times ranging from 15 minutes to 4h, according to the cell line. After incubation, the wells were washed three times with serum-free medium and the remaining firmly attached cells were stained with crystal-violet 0.1%. Optical density was measured at 560 nm by Victor 3 (Perkin-Elmer) plate analyzer. Each experiment was repeated three times.
as §5

Assay [9] concerns U87MG (human glioblastoma astrocytoma). Kind of assay: Cell adhesion assay on matrigel coated wells. It is filed as cell-based. Conditions: percent of adhesion with respect to the control (100%). The method, then: as §6, §7, §5
[10] abbreviates: AGA*IA screening, read-out: anti-heparanase activity.
The mark [11] stands for this setting: Table 1, range activity classes, AGA*IA test on Fondaparinux, read-out: AGAIA assay IC50.
[12] abbreviates: Table 2, classes as in Table 1, read-out: AGA*IA assay.

Structures can show the parent of a compound that is named as a salt. Where two headings read alike, the source gives them in different places. Bounds are passed on as bounds.

As to `Cn1cc(NC(=O)c2cccc(NC(=O)Nc3cccc(C(=O)Nc4cc(C(=O)Nc5cccc(CC(=O)NCC(=O)O)c5)n(C)c4)c3)c2)cc1C(=O)Nc1cccc(CC(=O)NCC(=O)O)c1` [Compound 12b, 2,2'-((2,2'-(((4,4'-((3,3'-(Carbonylbis(azanediyl))bis(benzoyl))bis(azanediyl))bis(1-methyl-1H-pyrrole-4,2-diyl-2-carbonyl))bis(azanediyl))bis(3,1-phenylene))bis(acetyl))bis(azanediyl))diacetic acid], the IC50 is < 500 nM in assay [1] (setting [10]), 50 to 490 nM in assay [1] (setting [11]) and 50 to 490 nM in assay [1] (setting [12]). Besides, the EC50 in [2] (HT-1080, 72 h) was > 2.5 µM; in assay [3] (72 h), > 2.5 µM; in assay [4] (72 h), > 2.5 µM. The inhibition at 2.5 µM in assay [5] and in [7] was < 50% each time. Moreover, the “Invasion Assay Inhibition U2OS” value in assay [6] (2.5 µM) was “-”. Besides, in assay [8] (2.5 µM), the “Adhesion Assay (%) HT1080” value is 97.1%. Further, the “Adhesion Assay (%) U87MG” value in assay [9] (2.5 µM) is listed as 16.7%.
Take `Cn1cc(NC(=O)c2cc(NC(=O)Nc3cc(C(=O)Nc4cc(C(=O)Nc5cccc(CC(=O)NCC(=O)O)c5)n(C)c4)cc(C(F)(F)F)c3)cc(C(F)(F)F)c2)cc1C(=O)Nc1cccc(CC(=O)NCC(=O)O)c1` [Compound 13c, Disodium 2,2'-{carbonylbis[imino[5-(trifluoromethyl)-3,1-phenylene]carbonylimino(1-methyl-1H-pyrrole-4,2-diyl)carbonylimino-3,1-phenylene(1-oxoethane-2,1-diyl)imino]}diethanoate salt]: the IC50 in [1] (setting [10]) is < 500 nM; in assay [1] (setting [11]), 50 to 490 nM; in assay [1] (setting [12]), 50 to 490 nM. Moreover, the EC50 in assay [2] (HT-1080, 72 h) is > 2.5 µM; in [3] (72 h), > 2.5 µM; in assay [4] (72 h) it was > 2.5 µM. Further, the inhibition at 2.5 µM in [5] was < 50%; in [6], 50 to 90%; in assay [7], < 50%. For the same compound, the “Adhesion Assay (%) HT1080” value in assay [8] (2.5 µM) is on record as 88.2%. For the same compound, in assay [9] (2.5 µM), the “Adhesion Assay (%) U87MG” value is recorded as 22.0%.
Consider `Cn1cc(NC(=O)Nc2cc(C(=O)Nc3cc(C(=O)Nc4cccc(CC(=O)N[C@@H](Cc5ccccc5)C(=O)O)c4)n(C)c3)n(C)c2)cc1C(=O)Nc1cc(C(=O)Nc2cccc(CC(=O)N[C@@H](Cc3ccccc3)C(=O)O)c2)n(C)c1` [Compound 17e, 2,2'-{carbonylbis[imino(1-methyl-1H-pyrrole-4,2-diyl)carbonylimino(1-methyl-1H-pyrrole-4,2-diyl)carbonylimino-3,1-phenylene(1-oxoethane-2,1-diyl)imino]}bis(3-phenylpropanoic acid)], for which the IC50 in assay [1] (setting [11]) and in [1] (setting [12]) was 500 to 990 nM throughout. Moreover, the EC50 in [2] (HT-1080, 72 h) is > 2.5 µM; in [3] (72 h), > 2.5 µM; in [4] (72 h) it was > 2.5 µM. Also, the inhibition at 2.5 µM in assay [5] and in [7] was < 50% each time. Besides, the “Invasion Assay Inhibition U2OS” value in [6] (2.5 µM) is listed as “-”. Further, the “Adhesion Assay (%) HT1080” value in [8] (2.5 µM) was 93.2%. Also, the “Adhesion Assay (%) U87MG” value in assay [9] (2.5 µM) was found to be 51.6%.
Regarding `Cn1cc(NC(=O)Nc2cc(C(=O)Nc3cc(C(=O)Nc4cccc(CC(=O)NCC(=O)O)c4)n(C)c3)n(C)c2)cc1C(=O)Nc1cc(C(=O)Nc2cccc(CC(=O)NCC(=O)O)c2)n(C)c1` [Compound 18, Disodium 2,2'-{carbonylbis[imino(1-methyl-1H-pyrrole-4,2-diyl)carbonylimino(1-methyl-1H-pyrrole-4,2-diyl)carbonylimino-3,1-phenylene(1-oxoethane-2,1-diyl)imino]}diethanoate salt], the IC50 in assay [1] (setting [11]) and in [1] (setting [12]) was 500 to 990 nM in each case. The EC50 in assay [2] (HT-1080, 72 h) was > 2.5 µM; in [3] (72 h), > 2.5 µM; in [4] (72 h), > 2.5 µM. In addition, the figures for the inhibition at 2.5 µM in [5], in assay [6] and in [7] were 50 to 90%, < 50% and < 50%, respectively. Besides, the “Adhesion Assay (%) HT1080” value in [8] (2.5 µM) was 86.4%. For the same compound, the “Adhesion Assay (%) U87MG” value in [9] (2.5 µM) came to 62.9%.
In the case of `Cc1ccc(C(=O)Nc2ccc(S(=O)(=O)O)c3cc(S(=O)(=O)O)cc(S(=O)(=O)O)c23)cc1NC(=O)c1cccc(NC(=O)Nc2cccc(C(=O)Nc3cc(C(=O)Nc4ccc(S(=O)(=O)O)c5cc(S(=O)(=O)O)cc(S(=O)(=O)O)c45)ccc3C)c2)c1` [Suramin, reference compound], the EC50 is > 10 µM in assay [2] (HT-1080, HT1080, 72h, SRB); > 10 µM in [3] (72h, SRB); > 10 µM in assay [4] (U87MG, 72h, SRB). Moreover, the inhibition at 10 µM in [5] (HT-1080, HT1080, 10 µM (reference)) was < 50%. For the same compound, in assay [6] (10 µM (reference)), the “Invasion Assay Inhibition U2OS” value is reported as “-”. Further, the “Invasion Assay Inhibition U87MG” value in assay [7] (U87MG, 10 µM (reference)) was “-”. In addition, in assay [8] (10 µM (reference)), the “Adhesion Assay (%) HT1080” value is given as 100%. In [9] (10 µM (reference)), the “Adhesion Assay (%) U87MG” value came out at 72.98%.
